This note sets out measurements from patent publication US8334315B2, “Substituted aromatic carboxamide and urea derivatives as vanilloid receptor ligands” (Gruenenthal GmbH, priority 2009, dated 2012).

For assay [1], the target named is T1, rat-species vanilloid receptor 1 (VR1/TRPV1) (Rattus norvegicus, UniProt O35433).
T1 construct: endogenous in cells; host or cells: primary cells dissociated from rat dorsal root ganglia (DRG), cultured 2-3 days with NGF
Kind of assay: Functional testing on the vanilloid receptor 1, FLIPR Ca2+ influx in rat DRG cells, capsaicin. Type of assay: cell-based. Details: key to Ki (rat) [nM] Cap: agonist / partial agonist / no effect: AG=agonist; pAG=partial agonist; NE=no effect. To be noted: for Ki: capsaicin (Cap), includes values given in brackets after pAG. The source says: I. Functional Testing Carried Out on the Vanilloid Receptor 1 (VRI/TRPV1 Receptor)
The agonistic or antagonistic effect of the substances to be tested on the rat-species vanilloid receptor 1 (VR1/TRPV1) can be determined using the following assay. In this assay, the influx of Ca^2+ through the receptor channel is quantified with the aid of a Ca^2+-sensitive dye (type Fluo-4, Molecular Probes Europe BV, Leiden, the Netherlands) in a fluorescent imaging plate reader (FLIPR, Molecular Devices, Sunnyvale, USA).
Complete medium: 50 ml HAMS F12 nutrient mixture (Gibco Invitrogen GmbH, Karlsruhe, Germany) with
10% by volume of FCS (foetal calf serum, Gibco Invitrogen GmbH, Karlsruhe, Germany, heat-inactivated);
2 mM L-glutamine (Sigma, Munich, Germany);
1% by weight of AA solution (antibiotic/antimyotic solution, PAA, Pasching, Austria) and 25 ng/ml NGF medium (2.5 S, Gibco Invitrogen GmbH, Karlsruhe, Germany)
Cell culture plate: Poly-D-lysine-coated, black 96-well plates having a clear base (96-well black/clear plate, BD Biosciences, Heidelberg, Germany) are additionally coated with laminin (Gibco Invitrogen GmbH, Karlsruhe, Germany), the laminin being diluted with PBS (Ca—Mg-free PBS, Gibco Invitrogen GmbH, Karlsruhe, Germany) to a concentration of 100 μg/ml. Aliquots having a laminin concentration of 100 μg/ml are removed and stored at −20° C. The aliquots are diluted with PBS in a ratio of 1:10 to 10 μg/ml of laminin and respectively 50 μL of the solution are pipetted into a recess in the cell culture plate. The cell culture plates are incubated for at least two hours at 37° C., the excess solution is removed by suction and the recesses are each washed twice with PBS. The coated cell culture plates are stored with excess PBS which is not removed until just before the feeding of the cells.
Preparation of the Cells:
The vertebral column is removed from decapitated rats and placed immediately into cold HBSS buffer (Hank's buffered saline solution, Gibco Invitrogen GmbH, Karlsruhe, Germany), i.e. buffer located in an ice bath, mixed with 1% by volume (per cent by volume) of an AA solution (antibiotic/antimyotic solution, PAA, Pasching, Austria). The vertebral column is cut longitudinally and removed together with fasciae from the vertebral canal. Subsequently, the dorsal root ganglia (DRG) are removed and again stored in cold HBSS buffer mixed with 1% by volume of an AA solution. The DRG, from which all blood remnants and spinal nerves have been removed, are transferred in each case to 500 μL of cold type 2 collagenase (PAA, Pasching, Austria) and incubated for 35 minutes at 37° C. After the addition of 2.5% by volume of trypsin (PAA, Pasching, Austria), incubation is continued for 10 minutes at 37° C. After complete incubation, the enzyme solution is carefully pipetted off and 500 μL of complete medium are added to each of the remaining DRG. The DRG are respectively suspended several times, drawn through cannulae No. 1, No. 12 and No. 16 using a syringe and transferred to a 50 ml Falcon tube which is filled up to 15 ml with complete medium. The contents of each Falcon tube are respectively filtered through a 70 μm Falcon filter element and centrifuged for 10 minutes at 1,200 rpm and RT. The resulting pellet is respectively taken up in 250 μL of complete medium and the cell count is determined.
The number of cells in the suspension is set to 3×10^5 per ml and 150 μL of this suspension are in each case introduced into a recess in the cell culture plates coated as described hereinbefore. In the incubator the plates are left for two to three days at 37° C., 5% by volume of CO2 and 95% relative humidity. […]

Assay [2] addresses T2, hVR1 (Homo sapiens, UniProt Q8NER1).
T2 construct: expressed in transfected cells; host or cells: CHO K1 cells (ECACC), stably transfected
The experiment in a line: Functional test on VR1, FLIPR Ca2+ influx in transfected CHO K1 cells, capsaicin. The assay is classed as cell-based, human being. More on the design: key to Ki (human being) [nM] Cap: agonist / partial agonist / no effect: AG=agonist; pAG=partial agonist; NE=no effect. To be noted: for Ki: capsaicin (Cap), includes values given in brackets after pAG, read-out: Ki (human being) [nM] Cap.

Assay [3] concerns the target T2, hVR1. Kind of assay: Functional test on hVR1 after pH stimulus. Type of assay: cell-based, human being. Details: key to IC50 (human being) hVR1, pH: agonist / partial agonist / no effect: AG=agonist; pAG=partial agonist; NE=no effect. Particulars: for inhibition at 10 µM: read-out: IC50 (human being) hVR1, pH: inhibition (as a percentage).
Assay [4] has as its target T2, hVR1. The experiment in a line: Functional test on human VR1, NADA (N-arachidonoyl dopamine) stimulus. The assay is classed as cell-based, human being. More on the design: key to Ki (human being) NADA: agonist / partial agonist / no effect: AG=agonist; pAG=partial agonist; NE=no effect. Particulars: for Ki: includes values given in brackets after pAG, read-out: Ki (human being) [nM] NADA. The source says:
II. Functional Tests Carried Out on the Vanilloid Receptor (VR1)
The agonistic or antagonistic effect of the substances to be tested on the vanilloid receptor 1 (VR1) can also be determined using the following assay. In this assay, the influx of Ca^2+ through the channel is quantified with the aid of a Ca^2+-sensitive dye (type Fluo-4, Molecular Probes Europe BV, Leiden, the Netherlands) in a fluorescent imaging plate reader (FLIPR, Molecular Devices, Sunnyvale, USA).
Chinese hamster ovary cells (CHO K1 cells, European Collection of Cell Cultures (ECACC) United Kingdom) are stably transfected with the VR1 gene. For functional testing, these cells are plated out on poly-D-lysine-coated black 96-well plates having a clear base (BD Biosciences, Heidelberg, Germany) at a density of 25,000 cells/well. The cells are incubated overnight at 37° C. and 5% CO2 in a culture medium (Ham's F12 nutrient mixture, 10% by volume of FCS (foetal calf serum), 18 μg/ml of L-proline). The next day the cells are incubated with Fluo-4 (Fluo-4 2 μM, 0.01% by volume of Pluronic F127, Molecular Probes in HBSS (Hank's buffered saline solution), Gibco Invitrogen GmbH, Karlsruhe, Germany) for 30 minutes at 37° C. Subsequently, the plates are washed three times with HBSS buffer and after further incubation for 15 minutes at RT used for Ca^2+ measurement in a FLIPR assay. The Ca^2+-dependent fluorescence is measured before and after the addition of the substances to be tested (λex wavelength=488 nm, λem=540 nm). Quantification is carried out by measuring the highest fluorescence intensity (FC, fluorescence counts) over time.
The FLIPR protocol consists of 2 substance additions. First the compounds to be tested (10 μM) are pipetted onto the cells and the Ca^2+ influx is compared with the control (capsaicin 10 μM) (% activation based on the Ca^2+ signal after the addition of 10 μM of capsaicin). […]
Desensitising agonists and antagonists led to suppression of the Ca^2+ influx. The % inhibition is calculated compared to the maximum achievable inhibition with 10 μM of capsaicin.
Starting from the percentage displacement caused by different concentrations of the compounds to be tested of general formula I, IC50 inhibitory concentrations which cause a 50-per cent displacement of capsaicin were calculated. Ki values for the test substances were obtained by conversion by means of the Cheng-Prusoff equation (Cheng, Prusoff; Biochem. Pharmacol. 22, 3099-3108, 1973).
NADA=N-arachidonoyl dopamine

For assay [5], the target named is T2, hVR1. The experiment in a line: Functional test on human VR1, 45° C. stimulus. Type of assay: cell-based, human being. More on the design: key to IC50 (human being), 45° C.: agonist / partial agonist / no effect: AG=agonist; pAG=partial agonist; NE=no effect. To be noted: for IC50: read-out: IC50 (human being) [nM], 45° C.
The target in assay [6] is T2, hVR1. The experiment in a line: Functional test on VR1, FLIPR Ca2+ influx in transfected CHO K1 cells, capsaicin. Type of assay: cell-based. Particulars: capsaicin (Cap), read-out: Ki (human being) Cap column: inhibition (as a percentage).

T2 sequence (Q8NER1 whole entry): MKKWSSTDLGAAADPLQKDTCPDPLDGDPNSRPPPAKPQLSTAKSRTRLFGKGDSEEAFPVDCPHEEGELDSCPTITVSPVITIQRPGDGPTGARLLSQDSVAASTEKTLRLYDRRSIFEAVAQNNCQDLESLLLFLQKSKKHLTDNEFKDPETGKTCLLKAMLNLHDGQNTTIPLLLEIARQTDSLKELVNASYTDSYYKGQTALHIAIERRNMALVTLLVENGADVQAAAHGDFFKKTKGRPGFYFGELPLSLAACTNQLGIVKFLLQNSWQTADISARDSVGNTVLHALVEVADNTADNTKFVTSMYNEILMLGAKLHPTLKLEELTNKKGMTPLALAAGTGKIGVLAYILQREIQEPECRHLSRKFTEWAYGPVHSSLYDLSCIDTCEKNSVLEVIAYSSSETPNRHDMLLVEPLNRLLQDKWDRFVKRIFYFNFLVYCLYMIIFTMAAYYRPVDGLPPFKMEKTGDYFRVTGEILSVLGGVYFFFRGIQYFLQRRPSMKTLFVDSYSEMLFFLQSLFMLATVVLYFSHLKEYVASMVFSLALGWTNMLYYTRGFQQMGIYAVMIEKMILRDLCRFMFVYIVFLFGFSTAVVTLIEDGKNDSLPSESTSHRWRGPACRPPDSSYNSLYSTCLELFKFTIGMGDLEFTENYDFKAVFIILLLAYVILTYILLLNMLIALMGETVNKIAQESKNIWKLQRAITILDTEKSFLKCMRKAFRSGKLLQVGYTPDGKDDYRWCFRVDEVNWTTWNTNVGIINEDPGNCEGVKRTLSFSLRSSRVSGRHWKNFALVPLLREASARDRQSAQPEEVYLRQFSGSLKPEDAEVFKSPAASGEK
T1 sequence (O35433 whole entry): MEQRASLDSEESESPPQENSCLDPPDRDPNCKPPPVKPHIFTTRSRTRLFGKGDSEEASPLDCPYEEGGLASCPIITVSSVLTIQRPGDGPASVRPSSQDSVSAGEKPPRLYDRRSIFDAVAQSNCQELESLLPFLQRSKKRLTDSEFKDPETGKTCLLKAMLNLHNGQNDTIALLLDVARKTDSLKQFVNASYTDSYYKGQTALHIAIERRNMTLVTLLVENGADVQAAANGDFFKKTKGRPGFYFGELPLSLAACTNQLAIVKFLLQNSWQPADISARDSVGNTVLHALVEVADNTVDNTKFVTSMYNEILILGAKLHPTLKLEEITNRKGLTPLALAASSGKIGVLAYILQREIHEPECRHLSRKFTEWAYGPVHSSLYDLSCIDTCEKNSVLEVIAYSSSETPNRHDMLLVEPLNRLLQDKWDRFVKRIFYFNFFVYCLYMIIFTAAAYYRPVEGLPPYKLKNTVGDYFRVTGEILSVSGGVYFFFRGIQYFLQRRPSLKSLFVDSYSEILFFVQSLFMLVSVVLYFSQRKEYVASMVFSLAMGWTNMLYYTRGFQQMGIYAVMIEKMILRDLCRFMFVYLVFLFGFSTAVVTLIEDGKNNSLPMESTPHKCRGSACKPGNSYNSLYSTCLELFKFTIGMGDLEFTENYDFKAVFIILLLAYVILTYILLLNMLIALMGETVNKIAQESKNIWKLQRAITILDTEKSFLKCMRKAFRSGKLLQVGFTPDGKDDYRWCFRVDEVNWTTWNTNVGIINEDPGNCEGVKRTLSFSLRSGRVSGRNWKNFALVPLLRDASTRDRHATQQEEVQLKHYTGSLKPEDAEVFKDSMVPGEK

In the case of `CC(C(=O)NCc1cc(C(F)(F)F)nn1-c1cccc(Cl)c1)c1cccc2[nH]ncc12` (stereo not drawn) [Example 27, N-((1-(3-chlorophenyl)-3-(trifluoromethyl)-1H-pyrazol-5-yl)methyl)-2-(1H-indazol-4-yl)propanamide], the Ki in assay [1] was determined as 11.2 nM; on hVR1 [2], 1.1 nM; at hVR1 [4] it was 0.008 nM. Further, the inhibition at 10 µM on hVR1 [3] was found to be 13%. Further, the IC50 on hVR1 [5] amounted to 297 nM.
In the same order, the values of `CC(C(=O)NCc1cc(C(C)(C)C)nn1-c1cccc(Cl)c1)c1cccc2ccc(O)cc12` (stereo not drawn) [Example 57, N-((3-tert-butyl-1-(3-chlorophenyl)-1H-pyrazol-5-yl)methyl)-2-(7-hydroxynaphthalen-1-yl)propanamide] are 4.2 nM, 1.6 nM, 0.1 nM, 13% and 25.6 nM.
`CC(C(=O)NCc1cc(C(F)(F)F)nn1-c1ccc(Cl)cc1)c1cccc2cnccc12` (stereo not drawn) [Example 68, N-((1-(4-chlorophenyl)-3-(trifluoromethyl)-1H-pyrazol-5-yl)methyl)-2-(isoquinolin-5-yl)propanamide]: the Ki on hVR1 [2] turned out to be 0.3 nM; at hVR1 [4], 0.04 nM. For the same compound, the inhibition at 10 µM on hVR1 [3] was determined as 33%. Moreover, on hVR1 [5], the IC50 was determined as 245 nM.
In the case of `CC(C(=O)NCc1cc(C(C)(C)C)nn1-c1ccc(F)c(Cl)c1)c1cccc2cnccc12` (stereo not drawn) [Example 69, N-((3-tert-butyl-1-(3-chloro-4-fluorophenyl)-1H-pyrazol-5-yl)methyl)-2-(isoquinolin-5-yl)propanamide], in assay [1], the “Ki (rat) [nM] Cap: agonist / partial agonist / no effect” value is listed as “pAG”. Moreover, the Ki in assay [1] was 0.9 nM; on hVR1 [2], 0.2 nM; at hVR1 [4] it was 0.004 nM. The inhibition at 10 µM on hVR1 [3] came out at 13%; at hVR1 [5] (@ 10 μM, read-out: IC50 (human being), 45° C.: inhibition (as a percentage)) it was 26%.
For `CC(C)(C)c1cc(CNC(=O)Nc2cccc3cnccc23)n(-c2cccc(Cl)c2)n1` [Example 109, 1-((3-tert-butyl-1-(3-chlorophenyl)-1H-pyrazol-5-yl)methyl)-3-(isoquinolin-5-yl)urea], at hVR1 [2], the “Ki (human being) [nM] Cap: agonist / partial agonist / no effect” value is recorded as “pAG” and the Ki came out at 0.2 nM. Also, at hVR1 [3], the “IC50 (human being) hVR1, pH: agonist / partial agonist / no effect” value is listed as “pAG”. For the same compound, the “Ki (human being) NADA: agonist / partial agonist / no effect” value at hVR1 [4] is on record as “pAG”. Further, the “IC50 (human being), 45° C.: agonist / partial agonist / no effect” value on hVR1 [5] is “pAG”.
Consider `CC(C)(C)c1cc(CNC(=O)Nc2cccc3ncccc23)n(-c2cccc(Cl)c2)n1` [Example 111, 1-((3-tert-butyl-1-(3-chlorophenyl)-1H-pyrazol-5-yl)methyl)-3-(quinolin-5-yl)urea], for which the “Ki (human being) [nM] Cap: agonist / partial agonist / no effect” value on hVR1 [2] is on record as “AG”. Also, at hVR1 [3], the “IC50 (human being) hVR1, pH: agonist / partial agonist / no effect” value is reported as “AG”. Moreover, the “Ki (human being) NADA: agonist / partial agonist / no effect” value on hVR1 [4] is given as “AG”. Further, the “IC50 (human being), 45° C.: agonist / partial agonist / no effect” value at hVR1 [5] is reported as “AG”.
As to `COc1ccc(Cn2nc(C(F)(F)F)cc2CNC(=O)C(C)c2ccc3c(c2)OCCO3)cc1` (stereo not drawn) [Example 202, 2-(2,3-dihydrobenzo[b][1,4]dioxin-6-yl)-N-((1-(4-methoxybenzyl)-3-(trifluoromethyl)-1H-pyrazol-5-yl)methyl)propanamide], the inhibition at 5 µM on hVR1 [6] turned out to be 13%.

Broadly, the Ki is a measure of affinity in units of concentration, obtained from inhibition or displacement. The term inhibition denotes the change of the read-out against control, counted positive when it falls. The term IC50 denotes the concentration that inhibits the measured activity by half.
